Experiments:
[1] = tested on: Eotaxin-3 (CCL26) release in human whole blood stimulated with IL-4; assay: Human whole blood eotaxin-3 assay (IL-4 stimulated eotaxin-3 release); format: cell-based; conditions: Homo sapiens, 48 h, human whole blood stimulated with recombinant human IL-4, 48 h; inhibition of eotaxin-3 release; given for test compounds with >80% Emax; geometric mean
Summary of the method: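 Eotaxin-3 (CCL26) release was quantified by MSD immunoassay in supernatants of human heparinised whole blood after 48 h at 37° C with IL-4 ([…] final). Compounds, in 4-fold dilutions at 0.5% DMSO, were added 2 h before stimulation.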

[2] = biological target: T1, Human STAT6 (truncated, aa122-658, with N-terminal His-tag) (Homo sapiens, UniProt P42226); assay: Surface plasmon resonance (SPR) assay, binding to human STAT6; conditions: Biacore 8K, 25° C, immobilized human STAT6 on CM5 chip, multi-cycle kinetics; geometric mean
T1 construct: Human STAT6 (truncated, aa122-658, with N-terminal His-tag, expressed in insect cells); His-tag (N); made in house; host or cells: insect cells
T1 sequence (P42226 122-658): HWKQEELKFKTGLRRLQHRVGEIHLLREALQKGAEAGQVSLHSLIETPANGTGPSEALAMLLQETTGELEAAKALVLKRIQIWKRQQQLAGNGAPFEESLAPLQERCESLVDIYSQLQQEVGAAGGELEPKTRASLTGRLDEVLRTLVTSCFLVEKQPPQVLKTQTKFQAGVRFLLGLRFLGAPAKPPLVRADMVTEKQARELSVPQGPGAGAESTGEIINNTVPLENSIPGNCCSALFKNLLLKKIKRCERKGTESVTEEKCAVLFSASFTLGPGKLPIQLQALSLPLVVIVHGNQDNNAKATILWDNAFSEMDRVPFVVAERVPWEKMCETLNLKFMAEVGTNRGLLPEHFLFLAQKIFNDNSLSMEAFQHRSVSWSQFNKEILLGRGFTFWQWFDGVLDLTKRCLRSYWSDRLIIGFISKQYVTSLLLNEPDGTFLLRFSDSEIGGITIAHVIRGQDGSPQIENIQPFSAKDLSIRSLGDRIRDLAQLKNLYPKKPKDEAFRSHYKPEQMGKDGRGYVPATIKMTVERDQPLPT
Protocol: Surface Plasmon Resonance Assay
Biacore instruments from the 8K-series (Cytiva) were used, and measurements were performed at 25° C. Human STAT6 (truncated, aa122-658, with N-terminal His-tag, expressed in insect cells) was immobilized in the active flow cells on a CM5 chip using amine-coupling (default settings) at 10 μg/ml in 10 mM acetate buffer pH 5.5, at a contact time of 120-420 sec. and a flow rate of 10 μl/min. Reference flow cells were deactivated using blank immobilization. PBS-P+(Cytiva) supplemented with 2% DMSO was used as running buffer, and solvent correction was applied. Compounds were tested by multi-cycle kinetics injections using a contact time of 60 sec., dissociation time of up to 300 sec., and a flow rate of 30 μl/min.
Solvent-corrected, reference-subtracted and blank-corrected data was processed and binding isotherms were fitted according to a single report point from each sensorgram (Standard: Late binding (5 sec. before injection end); alternative: Earlier report point according to binding profile). Data fitting was done both with unfixed Rmax and with Rmax fixed to the theoretical value* assuming 1:1 binding to allow processing of data from both weak and strong binders as well as to evaluate binding stoichiometry.
Positive controls were run at the beginning, during, and at the end of the screen to evaluate surface activity.
*Equation for calculation of the theoretical Rmax(Theoretical Rmax=(MW Analyte/MW Ligand)×immobilization level).

Compound	EC50 [1] [nM]	Kd [2] [nM]
[2H]C([2H])([2H])N(C(=O)c1ccc(C2=CCN(Cc3cc4c(-n5ccc(NC)cc5=O)ccnc4n3C)CC2)c(C)c1)C([2H])([2H])[2H] [Example 1m10, 3-Methyl-N,N-bis(methyl-d3)-4-(1-((1-methyl-4-(4-(methylamino)-2-oxopyridin-1 (2H)-yl)-1H-pyrrolo[2,3-b]pyridin-2-yl)methyl)-1,2,3,6-tetrahydropyridin-4-yl)benzamide]	37.4	9.57
CNc1ccn(-c2ccnc3c2cc(CN2CC=C(c4ccc(C(=O)N(C)C)cc4OC)CC2)n3C)c(=O)c1 [Example 1m54, 3-Methoxy-N,N-dimethyl-4-(1-((1-methyl-4-(4-(methylamino)-2-oxopyridin-1 (2H)-yl)-1H-pyrrolo[2,3-b]pyridin-2-yl)methyl)-1,2,3,6-tetrahydropyridin-4-yl)benzamide]	190	18.5
CN(C)C(=O)c1ccc(C2CC[N+]([O-])(Cc3cc4c(-n5ccc(N)cc5=O)ccnc4n3C)CC2)cc1 (stereo not drawn) [Example 1d32, 4-[1-[[4-(4-Amino-2-oxo-1-pyridyl)-1-methyl-pyrrolo[2,3-b]pyridin-2-yl]methyl]-1-oxido-piperidin-1-ium-4-yl]-N,N-dimethyl-benzamide]		333
CNc1ccn(-c2ccnc3c2cc(CN2CC=C(c4ncc(C(=O)N(C)C)cc4C)CC2)n3C)c(=O)c1 [Example 1m14, N,N,3-Trimethyl-1′-((1-methyl-4-(4-(methylamino)-2-oxopyridin-1 (2H)-yl)-1H-pyrrolo[2,3-b]pyridin-2-yl)methyl)-1′, 2′, 3′, 6′-tetrahydro-[2,4′-bipyridine]-5-carboxamide]		60.3
CNc1ccn(-c2ccnc3c2cc(CN2CCN(c4ccc(C(=O)N(C)C)cn4)CC2)n3C)c(=O)c1 [Example 1m7, N,N-Dimethyl-6-(4-((1-methyl-4-(4-(methylamino)-2-oxopyridin-1 (2H)-yl)-1H-pyrrolo[2,3-b]pyridin-2-yl)methyl)piperazin-1-yl)nicotinamide]		735
CCCN(CCC)C(=O)c1ccc(C2CCN(Cc3cc4c(-n5ccc(NC)cc5=O)ccnc4n3C)CC2)cc1 [Example 1d11, N,N-Dipropyl-4-[1-[[1-methyl-4-[4-(methylamino)-2-oxo-1-pyridyl]pyrrolo[2,3-b]pyridin-2-yl]methyl]-4-piperidyl]benzamide]		38.4
Cc1cn(-c2ccnc3c2cc(CN2CCC(c4ccc(C(=O)N(C)C)cc4)CC2)n3C)c(=O)nc1N [Example 1ac3, 4-(1-((4-(4-Amino-5-methyl-2-oxopyrimidin-1 (2H)-yl)-1-methyl-1H-pyrrolo[2,3-b]pyridin-2-yl)methyl)piperidin-4-yl)-N,N-dimethylbenzamide]		91.8
CN(C)C(=O)c1ccc(C2CCN(Cc3cc4c(-n5c(F)c(Cl)c(N)c(Cl)c5=O)ccnc4n3C)CC2)cc1 [Example 1d17, 4-[1-[[4-(4-Amino-3,5-dichloro-2-fluoro-6-oxo-1-pyridyl)-1-methyl-pyrrolo[2,3-b]pyridin-2-yl]methyl]-4-piperidyl]-N,N-methyl-benzamide]		6620
[2H]C([2H])([2H])N(C(=O)c1ccc(C2CCN(Cc3cc4c(-n5ccc(NC)cc5=O)ccnc4n3C)CC2)c(C)c1)C([2H])([2H])[2H] [Example 1d26, 3-Methyl-4-[1-[[1-methyl-4-[4-(methylamino)-2-oxo-1-pyridyl]pyrrolo[2,3-b]pyridin-2-yl]methyl]-4-piperidyl]-N,N-bis(trideuteriomethyl)benzamide]		69.7
CN(C)C(=O)c1ccc(C2CC[N+]([O-])(Cc3cc4c(-n5ccc6c(c5=O)CCN6)ccnc4n3C)CC2)cc1 (stereo not drawn) [Example 1d33, N,N-Dimethyl-4-[1-[[1-methyl-4-(4-oxo-2,3-dihydro-1H-pyrrolo[3,2-c]pyridin-5-yl)pyrrolo[2,3-b]pyridin-2-yl]methyl]-1-oxido-piperidin-1-ium-4-yl]benzamide]		75.1
CN(C)C(=O)c1ccc(C2CCN(Cc3cc4c(-n5ccc6c(c5=O)CCCN6)ccnc4n3C)CC2)cc1 [Example 1d35, N,N-Dimethyl-4-[1-[[1-methyl-4-(5-oxo-1,2,3,4-tetrahydro-1,6-naphthyridin-6-yl)pyrrolo[2,3-b]pyridin-2-yl]methyl]-4-piperidyl]benzamide]		25.1
CNc1ccn(-c2ccnc3c2cc(C(C)N2CCC(c4ccc(C(=O)N(C)C)cc4)CC2)n3C)c(=O)c1 (stereo not drawn) [Example 1m71, N,N-dimethyl-4-(1-(1-(1-methyl-4-(4-(methylamino)-2-oxopyridin-1 (2H)-yl)-1H-pyrrolo[2,3-b]pyridin-2-yl)ethyl)piperidin-4-yl)benzamide]		16.4

Now from value to molecule:

EC50 [1] [nM]	Kd [2] [nM]	Compound
	99.8	CN(C)C(=O)c1ccc(C2CCN(Cc3cc4c(-n5ccc(NCC6CC6)cc5=O)ccnc4n3C)CC2)cc1 [Example 1d7, 4-[1-[[4-[4-(cyclo-Propylmethylamino)-2-oxo-1-pyridyl]-1-methyl-pyrrolo[2,3-b]pyridin-2-yl]methyl]-4-piperidyl]-N,N-dimethyl-benzamide]
	4090	CNc1cc(=O)n(-c2ccnc3c2cc(CN2CCC(c4ccc(C(=O)N(C)C)cc4)CC2)n3C)cn1 [Example 1ac1, N,N-Dimethyl-4-(1-((1-methyl-4-(4-(methylamino)-6-oxopyrimidin-1 (6H)-yl)-1H-pyrrolo[2,3-b]pyridin-2-yl)methyl)piperidin-4-yl)benzamide]
	570	CNc1ccn(-c2ccnc3c2cc(CN2CCC(c4ccc(C(=O)N(C)C)cc4C(F)(F)F)CC2)n3C)c(=O)c1 [Example 1d38, N,N-Dimethyl-4-[1-[[1-methyl-4-[4-(methylamino)-2-oxo-1-pyridyl]pyrrolo[2,3-b]pyridin-2-yl]methyl]-4-piperidyl]-3-(trifluoromethyl)benzamide]
	178	CCOC(=O)Nc1ccn(-c2ccnc3c2cc(CN2CCC(c4ccc(C(=O)N(C)C)cc4)CC2)n3C)c(=O)c1 [Example 1d5, Ethyl N-[1-[2-[[4-[4-(dimethylcarbamoyl)phenyl]-1-piperidyl]methyl]-1-methyl-pyrrolo[2,3-b]pyridin-4-yl]-2-oxo-4-pyridyl]carbamate]
	188	CNc1ccn(-c2ccnc3c2cc(CN2CCN(c4ccc(C(=O)N(C)C)cc4)C[C@H]2C)n3C)c(=O)c1 [Example 1m2, (R)—N,N-Dimethyl-4-(3-methyl-4-((1-methyl-4-(4-(methylamino)-2-oxopyridin-1 (2H)-yl)-1H-pyrrolo[2,3-b]pyridin-2-yl)methyl)piperazin-1-yl)benzamide]
	67.5	CNc1ccn(-c2ccnc3c2cc(CN2CC[C@H](c4ccc(C(=O)N(C)C)cc4)[C@H](F)C2)n3C)c(=O)c1 (single isomer, unassigned) [Example 1f6]
	58.6	CNc1ccn(-c2ccnc3c2cc(CN2CCN(c4ccc(C(=O)N(C)C)cc4)C[C@@H]2C)n3C)c(=O)c1 [Example 1m1, (S)—N,N-dimethyl-4-(3-methyl-4-((1-methyl-4-(4-(methylamino)-2-oxopyridin-1 (2H)-yl)-1H-pyrrolo[2,3-b]pyridin-2-yl)methyl)piperazin-1-yl)benzamide]
	81.3	CNc1ccn(-c2ccnc3c2cc(CN2CCC(c4ccc(C(=O)N(C)C)cc4)C(F)(F)C2)n3C)c(=O)c1 (single isomer, unassigned) [Example 1f2]
	4970	CN(C)C(=O)c1ccc(C2CCN(Cc3cc4c(-n5ccc(NC(C)(C)C)cc5=O)ccnc4n3C)CC2)cc1 [Example 1d9, 4-[1-[[4-[4-(tert-Butylamino)-2-oxo-1-pyridyl]-1-methyl-pyrrolo[2,3-b]pyridin-2-yl]methyl]-4-piperidyl]-N,N-dimethyl-benzamide]
	152	COC(=O)Nc1ccn(-c2ccnc3c2cc(CN2CCC(c4ccc(C(=O)N(C)C)cc4)CC2)n3C)c(=O)c1 [Example 1d6, Methyl N-[1-[2-[[4-[4-(dimethylcarbamoyl)phenyl]-1-piperidyl]methyl]-1-methyl-pyrrolo[2,3-b]pyridin-4-yl]-2-oxo-4-pyridyl]carbamate]

From patent US20260001893A1, “SMALL MOLECULE MODULATORS OF STAT6” (Gilead Sciences, Inc., priority 2024, published 2026)
